What is called IC50 is the concentration that gives 50% inhibition. The term Ki denotes a dissociation constant, usually derived from enzyme kinetics or from competition with a known ligand.

Test [1] relates to CCRF-CEM. The experiment in a line: Cytotoxicity against folyl-poly-glutamate synthetase-deficient human CCRF-CEM cells in absence of thymidine and hypoxanthine.
Test [2] deals with CCRF-CEM. The experiment in a line: Cytotoxicity against human CCRF-CEM cells in presence of thymidine and absence of hypoxanthine.
The target of test [3] is Bifunctional purine biosynthesis protein ATIC (Homo sapiens, UniProt P31939). The experiment in a line: Inhibition of human recombinant AICAR transformylase.
Chain of Bifunctional purine biosynthesis protein ATIC (P31939 whole entry): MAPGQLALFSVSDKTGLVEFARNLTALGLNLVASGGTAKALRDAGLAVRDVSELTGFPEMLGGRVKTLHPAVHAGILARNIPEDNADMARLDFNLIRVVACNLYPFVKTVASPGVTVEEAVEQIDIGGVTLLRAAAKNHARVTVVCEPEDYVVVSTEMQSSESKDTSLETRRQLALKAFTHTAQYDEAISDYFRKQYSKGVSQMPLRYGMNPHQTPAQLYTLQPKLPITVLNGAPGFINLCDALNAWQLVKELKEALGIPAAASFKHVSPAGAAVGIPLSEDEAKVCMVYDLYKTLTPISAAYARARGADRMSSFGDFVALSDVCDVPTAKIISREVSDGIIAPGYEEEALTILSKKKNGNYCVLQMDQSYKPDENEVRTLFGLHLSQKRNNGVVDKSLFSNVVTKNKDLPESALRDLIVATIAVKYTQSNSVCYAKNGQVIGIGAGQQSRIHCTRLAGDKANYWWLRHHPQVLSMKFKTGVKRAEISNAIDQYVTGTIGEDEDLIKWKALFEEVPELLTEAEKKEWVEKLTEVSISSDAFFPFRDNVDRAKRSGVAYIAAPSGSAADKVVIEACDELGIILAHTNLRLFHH
Test [4] has as its system CCRF-CEM. Put plainly: Cytotoxicity against human CCRF-CEM cells in absence of thymidine and hypoxanthine.
Test [5] relates to CCRF-CEM. Put plainly: Cytotoxicity against human CCRF-CEM cells expressing reduced folate carrier in absence of thymidine and hypoxanthine.
For test [6], the system named is CCRF-CEM. The experiment in a line: Cytotoxicity against human CCRF-CEM cells in absence of thymidine and presence of hypoxanthine.
For test [7], the target named is T1, Trifunctional purine biosynthetic protein adenosine-3 (Homo sapiens, UniProt P22102).
T1 sequence (P22102 whole entry): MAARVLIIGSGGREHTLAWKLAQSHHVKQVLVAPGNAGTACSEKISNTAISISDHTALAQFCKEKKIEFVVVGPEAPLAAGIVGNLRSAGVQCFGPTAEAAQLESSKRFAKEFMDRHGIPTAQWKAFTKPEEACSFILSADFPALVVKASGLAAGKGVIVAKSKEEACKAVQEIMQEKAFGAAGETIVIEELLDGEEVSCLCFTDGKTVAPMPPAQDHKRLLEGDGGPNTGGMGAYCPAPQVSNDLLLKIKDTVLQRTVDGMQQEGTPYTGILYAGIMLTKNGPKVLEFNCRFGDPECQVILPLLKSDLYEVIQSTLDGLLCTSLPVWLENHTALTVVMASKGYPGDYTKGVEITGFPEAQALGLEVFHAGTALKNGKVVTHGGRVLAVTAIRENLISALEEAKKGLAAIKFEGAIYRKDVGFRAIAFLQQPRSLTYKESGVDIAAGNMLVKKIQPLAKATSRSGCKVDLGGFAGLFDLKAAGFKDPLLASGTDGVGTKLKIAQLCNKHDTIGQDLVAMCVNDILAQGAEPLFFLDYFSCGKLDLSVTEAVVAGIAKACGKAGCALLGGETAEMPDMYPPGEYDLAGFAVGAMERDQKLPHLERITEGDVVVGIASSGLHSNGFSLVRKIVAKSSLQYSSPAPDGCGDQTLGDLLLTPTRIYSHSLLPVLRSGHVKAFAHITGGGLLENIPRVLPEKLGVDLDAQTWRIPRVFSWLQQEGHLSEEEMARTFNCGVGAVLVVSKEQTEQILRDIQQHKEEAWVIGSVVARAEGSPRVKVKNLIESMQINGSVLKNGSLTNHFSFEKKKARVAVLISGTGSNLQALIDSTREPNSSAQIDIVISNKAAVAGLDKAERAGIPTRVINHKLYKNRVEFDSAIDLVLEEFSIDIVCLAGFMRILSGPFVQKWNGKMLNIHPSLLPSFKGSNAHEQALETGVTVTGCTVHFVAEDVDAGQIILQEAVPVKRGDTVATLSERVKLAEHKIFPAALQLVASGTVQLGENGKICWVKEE
Put plainly: Inhibition of human recombinant GAR transformylase.

With `CO[C@H](CCCc1c(N)nc(N)[nH]c1=O)c1ccc(C(=O)N[C@@H](CCC(=O)O)C(=O)O)cc1`, the IC50 was 6 µM in the test with CCRF-CEM [1]; 0.7 µM with CCRF-CEM [2]; 0.5 µM in the test on CCRF-CEM [4]; 0.6 µM in the test with CCRF-CEM [5]; over 10 µM in the test with CCRF-CEM [6]. Moreover, the Ki in test [3] was over 100 µM.

As to `Nc1nc(N)c(CCC[C@H](O)c2ccc(C(=O)N[C@@H](CCC(=O)O)C(=O)O)cc2)c(=O)[nH]1`, the IC50 in the test with CCRF-CEM [1] and in the test with CCRF-CEM [6] was over 10 µM throughout. For the same compound, in test [3], the Ki was over 100 µM.

As to `Nc1nc(N)c(CCCC2(c3ccc(C(=O)N[C@@H](CCC(=O)O)C(=O)O)cc3)SCCCS2)c(=O)[nH]1`, the IC50 in the test on CCRF-CEM [2] is over 100 µM; with CCRF-CEM [4], over 100 µM; with CCRF-CEM [6] it was over 10 µM. Further, the Ki in test [3] stood at 20 µM.

Consider `Nc1nc(N)c(CCCC(C(=O)C(F)(F)F)c2ccc(C(=O)N[C@@H](CCC(=O)O)C(=O)O)cc2)c(=O)[nH]1` (some centres not stated), for which the half-maximal inhibitory concentration (IC50) is over 10 µM in the test on CCRF-CEM [1], 0.017 µM in the test on CCRF-CEM [2], 0.016 µM in the test on CCRF-CEM [4] and over 10 µM in the test with CCRF-CEM [6]. Besides, in test [3], the Ki was over 100 µM.

In the case of `CS[C@H](CCCc1c(N)nc(N)[nH]c1=O)c1ccc(C(=O)N[C@@H](CCC(=O)O)C(=O)O)cc1`, the IC50 in the test with CCRF-CEM [1] is 5.5 µM; with CCRF-CEM [2] it was 0.08 µM; with CCRF-CEM [4], 0.08 µM; in the test on CCRF-CEM [5], 0.07 µM; in the test with CCRF-CEM [6] it was over 10 µM. The Ki in test [3] is over 100 µM.

On to `Nc1nc2c(c(=O)[nH]1)C[C@@H](CCc1ccc(C(=O)N[C@@H](CCC(=O)O)C(=O)O)cc1)CN2` [LOMETREXOL], for which the results for the IC50 in the test with CCRF-CEM [1], in the test with CCRF-CEM [5] and in the test on CCRF-CEM [6] were over 10 µM, over 100 µM and over 10 µM, respectively. Further, the Ki in test [3] is over 100 µM.

Turning to `Nc1nc(N)c(CCC[C@@H](O)c2ccc(C(=O)N[C@@H](CCC(=O)O)C(=O)O)cc2)c(=O)[nH]1`, the IC50 with CCRF-CEM [1] is over 10 µM; in the test with CCRF-CEM [2] it was 5.7 µM; with CCRF-CEM [4], 2.4 µM; in the test with CCRF-CEM [6] it was over 10 µM. The Ki is 1.1 µM in test [7] and over 100 µM in test [3].

Take `CS[C@@H](CCCc1c(N)nc(N)[nH]c1=O)c1ccc(C(=O)N[C@@H](CCC(=O)O)C(=O)O)cc1`: the half-inhibitory concentration (IC50) in the test on CCRF-CEM [1] was 5 µM; in the test with CCRF-CEM [2] it was 0.07 µM; in the test on CCRF-CEM [4], 0.05 µM; in the test on CCRF-CEM [5], 0.06 µM; in the test with CCRF-CEM [6] it was over 10 µM. Also, the Ki in test [3] was over 100 µM.

With `Nc1nc(N)c(CCCCc2ccc(C(=O)N[C@@H](CCC(=O)O)C(=O)O)cc2)c(=O)[nH]1` [DIDEAZAACYCLOTETRAHYDROFOLIC ACID], the IC50 in the test with CCRF-CEM [1] was over 10 µM; in the test on CCRF-CEM [2], 3.6 µM; in the test on CCRF-CEM [4], 2.7 µM; in the test with CCRF-CEM [5], over 100 µM; in the test on CCRF-CEM [6], over 10 µM. The Ki in test [3] was found to be 20 µM.

Take `CO[C@@H](CCCc1c(N)nc(N)[nH]c1=O)c1ccc(C(=O)N[C@@H](CCC(=O)O)C(=O)O)cc1`: the IC50 is over 10 µM in the test on CCRF-CEM [1]; 0.9 µM in the test on CCRF-CEM [2]; 0.7 µM in the test with CCRF-CEM [4]; 0.9 µM with CCRF-CEM [5]; over 10 µM in the test with CCRF-CEM [6]. Also, in test [3], the Ki is over 100 µM.

These data come from ChEMBL document CHEMBL1157354, “Asymmetric synthesis of inhibitors of glycinamide ribonucleotide transformylase” (J Med Chem, 2008).
